Measured values reported in patent publication US20120301551A1, “COMPOUNDS AND COMPOSITIONS FOR TREATING NEURONAL DEATH OR NEUROLOGICAL DYSFUNCTION” (Neurotech Pharmaceuticals Co., Ltd., priority 2005, published 2012).

Assays:
G93A transgenic mice = experiment: oxidative stress in lumbar spinal motor neurons of G93A transgenic mice (nitrotyrosine, MitoTracker); type: in vivo, mouse; settings: 30 mg/kg/d oral in diet from 8 weeks of age, at 10 weeks of age
Description: D: Fluorescent photomicrographs of the lumbar ventral section immunolabeled with nitrotyrosine antibody from the wild type (a), or ALS transgenic mice treated with vehicle (b), or 2-hydroxy TTBA for 2 weeks starting from at age of 8 weeks (c). Arrows indicate motor neurons (top panel). Levels of nitrotyrosine were quantitated, mean±SEM (n=15 sections from 3 mice per each condition (bottom panel). p<0.05 using ANOVA and Student-Newman-Keuls test.
E: Same as D except measurement of the fluorescence intensity of oxidized MT red CM-H2XRos. p<0.05 using ANOVA and Student-Newman-Keuls test.
G93A transgenic mice received oral administration of 2-hydroxy-TTBA (30 mg/kg/d) in the diet from 8 weeks of age. The oral administration of 2-Hydroxy-TTBA blocked nitrotyrosine, and mitochondrial free radical increased in the lumbar spinal motor neurons at 10 weeks of age compared to the wild type (FIGS. 5D & 5E). […] Thus, cell necrosis and Fas-mediated apoptosis induced in G93A mice can be prevented by oral administration of 2-hydroxy-TTBA and Li^+.

[1] = tested on: APPswe/PS1deltaE9 double transgenic mice; experiment: open field activity in APPswe/PS1deltaE9 double transgenic mice; type: in vivo, mouse; settings: 25 mg/kg/day chemical 01 or 62.5 mg/kg/day ibuprofen for 14.5 months (3~17.5 months)
Protocol: After administration of drug for 14.5 months, Open field activity test was performed to evaluate locomotor activity and exploratory behavior. 4×4 of scale marks were drawn in white acryl box having a size of 60 cm×60 cm×35 cm (width×length×height) to make sixteen squares. Four squares in the center became center zone and twelve squares around the center zone became peripary zone. Mice were laid into transparent acryl tube (diameter: about 3.5 inches) laid at the left corner of the acryl box for 30 seconds. After 30 seconds, acryl tube was removed to make mouse free. Experiment was once performed for each mouse for 5 minutes. The distance traveled in the open field was recorded (mean±SEM, n=3-5).
17.5 month-old APPswe/PS1deltaE9 double transgenic mice were fed chow alone (saline only), or containing 25 mg/kg/day of chemical—01, for […] (3˜17.5 month).
Open field activity was used to evaluate locomotor activity and exploratory behavior. The distance traveled in the open field was recorded and performance was analyzed after the testing took place.

| SMILES | nitrotyrosine and mitochondrial free radical increased in the lumbar spinal motor neurons (G93A transgenic mice) | open field activity (distance traveled) [1] |
| --- | --- | --- |
| O=C(O)c1cc(NCc2c(F)c(F)c(C(F)(F)F)c(F)c2F)ccc1O [2-Hydroxy-TTBA, 2-hydroxy-5-(2,3,5,6-tetrafluoro-4-trifluoromethyl-benzylamino)-benzoic acid] | blocked | – |
| O=C(O)c1cc(NCCc2ccc(C(F)(F)F)cc2)ccc1O [chemical 01, 2-Hydroxy-5-[2-(4-trifluoromethyl-phenyl)-ethylamino]-benzoic acid] | – | reduced significantly |
